# Residues, ends and D or L forms follow the SMILES beside them.
# Key:
# [1] = tested on: primary normal human epidermal melanocytes (NHEM); assay: MTT and colony formation assays in normal human melanocytes; type: cell-based
# Experimental: FIG. 2A is a histogram showing the results of an MTT assay of normal human melanocytes treated with varying concentrations of IVMT-Rx-3.
# FIG. 2B is a histogram showing the results of a colony formation assay of normal human melanocytes treated with varying concentrations of IVMT-Rx-3. Two-hundred cells were plated on 60-mm dishes, treated with IVMT-Rx-3 at different doses. Every third day, culture media was replaced with fresh IVMT-Rx-3-containing media. After two weeks, colonies were stained, counted and graphs plotted.
# (§1) The effect of IVMT-Rx-3 on primary normal human epidermal melanocyte cell growth and survival was determined after short term (24 hr., growth assays) (FIG. 2A) and long-term exposure (3-week, clonal assays) (FIG. 2B).
# [2] = tested on: MDA-9/Syntenin; assay: MDA-9/Syntenin protein expression; type: cell-based
# [3] = tested on: B16 lung metastases; assay: B16 lung metastasis model in C57BL/6 mice; type: in vivo, mouse; conditions: 30 mg/kg I.P., 3× per week, 6 injections
# Experimental: FIG. 6A is a series of images of B16 lung metastases in C57BL/6 mice treated with DMSO vehicle, PDZ1i, or IVMT-Rx-3 (intraperitoneal injection of 30 mg/kg, 3×/week, 6 injections total). 1×10^5 B16 cells were injected intravenously in C57BL/6 mice (n=7, per group) prior to treatment.
# FIG. 6B is a series of histograms showing the number of nodules/lung, T cell populations (CD8^+IFN-γ^+) and myeloid-derived suppressor cells (MDSCs) in the lungs of the treatment groups described in FIG. 6A, as measured by flow cytometry. *: Statistical significance (p<0.05);**: Statistical significance (p<0.01);***: Statistical significance (p<0.001). ****: Statistical significance (p<0.0001).
# All animal experiments were performed according to guidelines established by VCU IACUC. Immune competent mice (6-week-old male C57BL/6) were used in this study for determining the anti-metastatic efficiency of IVMT-Rx-3. Mice were purchased from Jackson Laboratories and after one-week in barrier facilities, experiments were performed. To establish lung metastases, murine B16 (1×10^5 cells/0.1 ml PBS) were injected via tail vein in C57BL/6 mice (18). Test chemical (IVMT-Rx-3) was administrated at 30 mg/kg body weight three times a week I.P. for the first two weeks (six injections, C57BL/6 study). DMSO was used as control. Anti-PD-L1 antibody and control antibodies for therapeutic injections were purchased from Bio X Cell (West Lebanon, NH, USA).
# 1×10^5 B16 cells were injected intravenously in C57BL/6 mice and treated with IVMT-Rx-3 (intraperitoneal injection 30 mg/kg, 3× in a week, 6 injections in total). 100 μg of Anti-PD-L1 antibody was injected through the I/P (intraperitoneal) route (3 times a week, over a 2-week period). A set of 20 animals were first injected with B16 cells (1×10^5 cells/mouse) and randomly divided into four groups (n=5) for survival studies. As stated in the above-mentioned lung metastasis protocol, mice received 6 doses of control vehicle or IVMT-Rx-3 either alone or in combination with anti-PD-L1 over the first two weeks. […]
# [4] = biological target: PDZ tandem protein Harmonin (Homo sapiens, UniProt Q9Y6N9); assay: Binding to other PDZ domains: Harmonin; conditions: 36% identity to PDZ2 and 31% to PDZ1 of MDA-9/Syntenin
# Sequence of PDZ tandem protein Harmonin (Q9Y6N9 whole entry, the tested form may be a part): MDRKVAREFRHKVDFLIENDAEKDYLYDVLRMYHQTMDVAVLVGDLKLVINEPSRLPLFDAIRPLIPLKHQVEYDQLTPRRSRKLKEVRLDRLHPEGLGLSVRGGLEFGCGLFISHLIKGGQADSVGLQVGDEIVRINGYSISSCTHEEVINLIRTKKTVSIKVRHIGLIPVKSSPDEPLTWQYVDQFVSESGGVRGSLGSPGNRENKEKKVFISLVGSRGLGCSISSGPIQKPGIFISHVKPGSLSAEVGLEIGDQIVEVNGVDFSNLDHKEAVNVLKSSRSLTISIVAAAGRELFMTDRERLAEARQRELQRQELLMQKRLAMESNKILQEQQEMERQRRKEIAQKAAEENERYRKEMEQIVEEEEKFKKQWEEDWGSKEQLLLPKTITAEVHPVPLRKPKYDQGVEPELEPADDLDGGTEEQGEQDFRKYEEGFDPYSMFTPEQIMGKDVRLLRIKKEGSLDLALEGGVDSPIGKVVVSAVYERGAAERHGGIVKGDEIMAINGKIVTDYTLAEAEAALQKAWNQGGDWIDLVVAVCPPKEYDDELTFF
# [5] = tested on: human melanoma cells (established and early passage patient-derived); assay: Proliferation / colony formation of human melanoma cells; type: cell-based; conditions: 10 to 50 μM
# From the text: FIG. 2C is a series of images showing colony formation assays of established human melanoma and patient-derived early passage human melanoma cells treated with IVMT-Rx-3.
# FIG. 2D is a series of histograms showing the number of colonies/plate in the colony formation assays described in FIG. 2C. NS: Not statistically significant; Statistically significant p<0.05.
# FIG. 2E is a series of histograms showing the number of colonies/plate in colony formation assays of patient-derived early passage human melanoma cells treated with IVMT-Rx-3. NS: Not statistically significant; Statistically significant p<0.05.
# as §1
# [6] = tested on: MMP-2 and MMP-9; assay: Gelatin zymography of conditioned media; type: cell-based, human; conditions: A-375 and C8161.9 cells, 10, 25, 50 μM, 24 hrs
# Experimental: FIG. 5B is images of zymography assays of MMP-2 and MMP-9 activity in A-375, C8161.9 cells treated with IVMT-Rx-3 at varying doses, and histograms showing the calculated intensity from the zymography assays. *: Statistical significance (p<0.05).
# Tumor cells were treated with different doses of IVMT-Rx-3 (10, 25, and 50 μM) for 24 hrs. The cells were then cultured in serum-free medium overnight. Conditioned media (serum free media) collected on the next day was quantified and equal amounts of protein were run in a 7.5% SDS-polyacrylamide gel electrophoresis containing 1.5 mg/mL gelatin. The gels were washed vigorously with shaking 3×in 2.5% Triton X-100 solution to remove the SDS. The gel was then placed in the developing buffer [50 mM/L Tris-HCl (pH 7.5), 0.05% NaN3, 5 mM/L CaCl2), and 1 μM/L ZnCl2] 37 °C overnight. Lastly, the gels were stained with Amido black in 10% acetic acid followed by de-staining for 1 hr. MMP activities as observed through gelatinolysis were measured as clear zones of white strips against a blue background (21).
compound,measurement,setting,value
Cc1cc(NC(=O)c2nc3[nH]c4c(c(=O)n3n2)CCC4)c(C)cc1NC(=O)CCOCCC(=O)N[C@H](C(=O)N[C@@H](CC(N)=O)C(=O)N[C@@H](CCC(=O)O)C(=O)N[C@@H](Cc1ccc(O)cc1)C(=O)N[C@@H](Cc1ccc(O)cc1)C(=O)N[C@H](C(=O)O)C(C)C)[C@@H](C)O [IVMT-Rx-3] (HELM PEPTIDE1{[Cc1cc(NC(=O)c2nc3[nH]c4c(c(=O)n3n2)CCC4)c(C)cc1NC(=O)CCOCCC(=O)[*:2]].T.N.E.Y.Y.V}$$$$V2.0),effect on cell proliferation on repeated treatment,"[1]; 50 μM, repeated treatment, FIG. 2A and 2B",did not show any effect on cell proliferation
same,toxicity in primary melanocytes,"[1]; 50 μM, 24 hr growth assay and 3-week clonal assay",No significant toxicity
same,toxicity in early passage normal human melanocytes,[1]; summary statement,without provoking toxicity
same,effect on cell proliferation in NHEM (MTT assay),"[1]; varying concentrations, FIG. 2A",lack of effect
same,effect on MDA-9/Syntenin protein expression,[2],does not affect MDA-9/Syntenin protein expression
same,efficacy against lung metastases compared with PDZ1i,[3],significantly higher compared with PDZ1i
same,lung metastasis (combination experiment),[3]; single agent,markedly reduced lung metastasis
same,number of lung nodules,[3]; vs vehicle,significantly reduced the number of lung nodules
same,binding to Harmonin,[4],did not bind appreciably
same,inhibition of proliferation or long-term survival,[5],did not inhibit proliferation or long-term survival
same,MMP activity (zymography),[6],lower activity in treated cells

# — US20260345798A1, “COMPOUNDS AND METHODS OF USE THEREOF” (Virginia Commonwealth University, priority 2023, published 2026)
